Common to all, as to assay: relative viability (nuclei count vs DMSO), 5 days (fraction); higher = more cells survive
Compound in the test “Linifanib + Pemetrexed”: Cc1ccc(F)c(NC(=O)Nc2ccc(-c3cccc4[nH]nc(N)c34)cc2)c1 [Linifanib] + Nc1nc2[nH]cc(CCc3ccc(C(=O)N[C@@H](CCC(=O)O)C(=O)O)cc3)c2c(=O)[nH]1 [Pemetrexed] (partner 0.2 µM)
Summed up: (§1)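 Lung cancer cell lines in 1536-well plates were dosed by pin tool the day after seeding, either with one drug alone or with a fixed anchor-drug dose plus five library-drug doses (not always all listed) in √10 steps. After 5 days, cells were fixed and their nuclei stained in one step (final 0.05% Triton X-100, 1% formaldehyde, 1 ug/ml Hoechst), then counted on 4× images. Relative viability is the nuclei count in treated wells divided by that in vehicle wells. Values are medians of duplicate plates.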

Compound in the test “Linifanib + Navitoclax”: Cc1ccc(F)c(NC(=O)Nc2ccc(-c3cccc4[nH]nc(N)c34)cc2)c1 [Linifanib] + CC1(C)CCC(c2ccc(Cl)cc2)=C(CN2CCN(c3ccc(C(=O)NS(=O)(=O)c4ccc(N[C@H](CCN5CCOCC5)CSc5ccccc5)c(S(=O)(=O)C(F)(F)F)c4)cc3)CC2)C1 [Navitoclax] (partner 0.5 µM)
In a few lines: as §1

Compound in the test “Linifanib + Tozasertib”: Cc1ccc(F)c(NC(=O)Nc2ccc(-c3cccc4[nH]nc(N)c34)cc2)c1 [Linifanib] + Cc1cc(Nc2cc(N3CCN(C)CC3)nc(Sc3ccc(NC(=O)C4CC4)cc3)n2)n[nH]1 [Tozasertib] (partner 0.1 µM)
In a few lines: as §1

Compound in the test “Linifanib + Crizotinib”: Cc1ccc(F)c(NC(=O)Nc2ccc(-c3cccc4[nH]nc(N)c34)cc2)c1 [Linifanib] + C[C@@H](Oc1cc(-c2cnn(C3CCNCC3)c2)cnc1N)c1c(Cl)ccc(F)c1Cl [Crizotinib] (partner 1 µM)
In a few lines: as §1

Compound in the test “Linifanib + AZD7762”: Cc1ccc(F)c(NC(=O)Nc2ccc(-c3cccc4[nH]nc(N)c34)cc2)c1 [Linifanib] + NC(=O)Nc1cc(-c2cccc(F)c2)sc1C(=O)N[C@H]1CCCNC1 [AZD7762] (partner 0.2 µM)
In a few lines:
as §1

Compound in the test “Linifanib + Olaparib”: Cc1ccc(F)c(NC(=O)Nc2ccc(-c3cccc4[nH]nc(N)c34)cc2)c1 [Linifanib] + O=C(c1cc(Cc2n[nH]c(=O)c3ccccc23)ccc1F)N1CCN(C(=O)C2CC2)CC1 [Olaparib] (partner 8 µM)
Summed up:
as §1

With EKVX, the relative viability with Linifanib + Pemetrexed (first compound 0.03162 µM) turned out to be 0.388; in the test with Linifanib + Pemetrexed (first compound 0.1 µM), 0.413; with Linifanib + Pemetrexed (first compound 0.3162 µM) it was 0.399; with Linifanib + Navitoclax (first compound 0.03162 µM), 0.973; with Linifanib + Navitoclax (first compound 0.1 µM) it was 1.15; in the test with Linifanib + Navitoclax (first compound 0.3162 µM), 0.868. The relative viability came to 0.477 in the test with Linifanib + Tozasertib (first compound 0.03162 µM); 0.448 with Linifanib + Tozasertib (first compound 0.1 µM); 0.338 with Linifanib + Tozasertib (first compound 0.3162 µM); 0.939 with Linifanib + Crizotinib (first compound 0.03162 µM); 1.01 in the test with Linifanib + Crizotinib (first compound 0.1 µM); 0.875 with Linifanib + Crizotinib (first compound 0.3162 µM). Moreover, the relative viability with Linifanib + AZD7762 (first compound 0.03162 µM) is 0.78; with Linifanib + AZD7762 (first compound 0.1 µM), 0.873; in the test with Linifanib + AZD7762 (first compound 0.3162 µM), 0.808; with Linifanib + Olaparib (first compound 0.03162 µM) it was 0.953; with Linifanib + Olaparib (first compound 0.1 µM) it was 0.868; in the test with Linifanib + Olaparib (first compound 0.3162 µM), 0.914.
For NCI-H1437, the relative viability was 0.323 with Linifanib + Pemetrexed (first compound 0.03162 µM); 0.339 in the test with Linifanib + Pemetrexed (first compound 0.1 µM); 0.286 in the test with Linifanib + Pemetrexed (first compound 0.3162 µM); 1.1 with Linifanib + Navitoclax (first compound 0.03162 µM); 1.12 with Linifanib + Navitoclax (first compound 0.1 µM); 1.07 with Linifanib + Navitoclax (first compound 0.3162 µM). The relative viability was 0.375 in the test with Linifanib + Tozasertib (first compound 0.03162 µM); 0.444 with Linifanib + Tozasertib (first compound 0.1 µM); 0.389 with Linifanib + Tozasertib (first compound 0.3162 µM); 1.05 with Linifanib + Crizotinib (first compound 0.03162 µM); 0.849 in the test with Linifanib + Crizotinib (first compound 0.1 µM); 0.888 with Linifanib + Crizotinib (first compound 0.3162 µM). Further, the relative viability with Linifanib + AZD7762 (first compound 0.03162 µM) turned out to be 1.01; with Linifanib + AZD7762 (first compound 0.1 µM), 1.22; with Linifanib + AZD7762 (first compound 0.3162 µM), 1.13; with Linifanib + Olaparib (first compound 0.03162 µM), 0.631; with Linifanib + Olaparib (first compound 0.1 µM), 0.653; with Linifanib + Olaparib (first compound 0.3162 µM) it was 0.603.
On to RERF-LC-KJ, for which the relative viability in the test with Linifanib + Pemetrexed (first compound 0.03162 µM) amounted to 0.502; in the test with Linifanib + Pemetrexed (first compound 0.1 µM), 0.494; in the test with Linifanib + Pemetrexed (first compound 0.3162 µM), 0.484; with Linifanib + Navitoclax (first compound 0.03162 µM) it was 1.12; with Linifanib + Navitoclax (first compound 0.1 µM), 1.02; with Linifanib + Navitoclax (first compound 0.3162 µM), 0.994. The relative viability in the test with Linifanib + Tozasertib (first compound 0.03162 µM) was determined as 0.46; with Linifanib + Tozasertib (first compound 0.1 µM) it was 0.531; with Linifanib + Tozasertib (first compound 0.3162 µM) it was 0.578; in the test with Linifanib + Crizotinib (first compound 0.03162 µM), 0.833; in the test with Linifanib + Crizotinib (first compound 0.1 µM), 0.778; with Linifanib + Crizotinib (first compound 0.3162 µM) it was 0.745. Moreover, the relative viability with Linifanib + AZD7762 (first compound 0.03162 µM) came out at 1.03; with Linifanib + AZD7762 (first compound 0.1 µM), 1.01; with Linifanib + AZD7762 (first compound 0.3162 µM) it was 0.938; in the test with Linifanib + Olaparib (first compound 0.03162 µM) it was 0.875; with Linifanib + Olaparib (first compound 0.1 µM), 1.08; in the test with Linifanib + Olaparib (first compound 0.3162 µM) it was 0.892.
Take NCI-H1755: the relative viability with Linifanib + Pemetrexed (first compound 0.03162 µM) came out at 0.457; with Linifanib + Pemetrexed (first compound 0.1 µM) it was 0.465; with Linifanib + Pemetrexed (first compound 0.3162 µM) it was 0.474; with Linifanib + Navitoclax (first compound 0.03162 µM) it was 0.931; in the test with Linifanib + Navitoclax (first compound 0.1 µM) it was 1.06; with Linifanib + Navitoclax (first compound 0.3162 µM) it was 0.949. Further, the relative viability worked out at 0.585 in the test with Linifanib + Tozasertib (first compound 0.03162 µM); 0.625 with Linifanib + Tozasertib (first compound 0.1 µM); 0.553 with Linifanib + Tozasertib (first compound 0.3162 µM); 0.888 with Linifanib + Crizotinib (first compound 0.03162 µM); 0.957 in the test with Linifanib + Crizotinib (first compound 0.1 µM); 0.841 with Linifanib + Crizotinib (first compound 0.3162 µM). Further, the relative viability with Linifanib + AZD7762 (first compound 0.03162 µM) was determined as 0.457; with Linifanib + AZD7762 (first compound 0.1 µM), 0.505; with Linifanib + AZD7762 (first compound 0.3162 µM) it was 0.495; in the test with Linifanib + Olaparib (first compound 0.03162 µM), 0.875; with Linifanib + Olaparib (first compound 0.1 µM), 0.903; in the test with Linifanib + Olaparib (first compound 0.3162 µM), 0.835.
Take LOU-NH91: the relative viability with Linifanib + Pemetrexed (first compound 0.03162 µM) was 0.416; with Linifanib + Pemetrexed (first compound 0.1 µM), 0.372; with Linifanib + Pemetrexed (first compound 0.3162 µM), 0.364; in the test with Linifanib + Navitoclax (first compound 0.03162 µM), 0.656; with Linifanib + Navitoclax (first compound 0.1 µM) it was 0.753; in the test with Linifanib + Navitoclax (first compound 0.3162 µM) it was 0.594. The relative viability came to 0.713 in the test with Linifanib + Tozasertib (first compound 0.03162 µM); 0.693 with Linifanib + Tozasertib (first compound 0.1 µM); 0.68 with Linifanib + Tozasertib (first compound 0.3162 µM); 0.74 in the test with Linifanib + Crizotinib (first compound 0.03162 µM); 0.767 in the test with Linifanib + Crizotinib (first compound 0.1 µM); 0.769 in the test with Linifanib + Crizotinib (first compound 0.3162 µM). For the same cell line, the relative viability came to 0.752 with Linifanib + AZD7762 (first compound 0.03162 µM); 0.816 in the test with Linifanib + AZD7762 (first compound 0.1 µM); 0.739 with Linifanib + AZD7762 (first compound 0.3162 µM); 0.909 with Linifanib + Olaparib (first compound 0.03162 µM); 0.956 in the test with Linifanib + Olaparib (first compound 0.1 µM); 0.869 in the test with Linifanib + Olaparib (first compound 0.3162 µM).
As to NCI-H1944, the relative viability with Linifanib + Pemetrexed (first compound 0.03162 µM) came out at 0.678; with Linifanib + Pemetrexed (first compound 0.1 µM), 0.705; in the test with Linifanib + Pemetrexed (first compound 0.3162 µM), 0.675; with Linifanib + Navitoclax (first compound 0.03162 µM), 1.05; in the test with Linifanib + Navitoclax (first compound 0.1 µM), 1.05; with Linifanib + Navitoclax (first compound 0.3162 µM), 0.98. Also, the relative viability worked out at 0.249 in the test with Linifanib + Tozasertib (first compound 0.03162 µM); 0.261 with Linifanib + Tozasertib (first compound 0.1 µM); 0.259 with Linifanib + Tozasertib (first compound 0.3162 µM); 1.1 in the test with Linifanib + Crizotinib (first compound 0.03162 µM); 1.12 with Linifanib + Crizotinib (first compound 0.1 µM); 0.997 in the test with Linifanib + Crizotinib (first compound 0.3162 µM). Moreover, the relative viability in the test with Linifanib + AZD7762 (first compound 0.03162 µM) was 0.43; in the test with Linifanib + AZD7762 (first compound 0.1 µM), 0.65; in the test with Linifanib + AZD7762 (first compound 0.3162 µM) it was 0.479; in the test with Linifanib + Olaparib (first compound 0.03162 µM) it was 0.42; with Linifanib + Olaparib (first compound 0.1 µM), 0.434; with Linifanib + Olaparib (first compound 0.3162 µM), 0.367.
Consider NCI-H1993, for which the relative viability with Linifanib + Pemetrexed (first compound 0.03162 µM) was found to be 0.642; with Linifanib + Pemetrexed (first compound 0.1 µM) it was 0.627; with Linifanib + Pemetrexed (first compound 0.3162 µM) it was 0.637; with Linifanib + Navitoclax (first compound 0.03162 µM), 0.806; with Linifanib + Navitoclax (first compound 0.1 µM), 1.01; in the test with Linifanib + Navitoclax (first compound 0.3162 µM), 0.971. For the same cell line, the relative viability with Linifanib + Tozasertib (first compound 0.03162 µM) is 0.62; in the test with Linifanib + Tozasertib (first compound 0.1 µM), 0.638; with Linifanib + Tozasertib (first compound 0.3162 µM), 0.57; with Linifanib + Crizotinib (first compound 0.03162 µM) it was 1.01; in the test with Linifanib + Crizotinib (first compound 0.1 µM), 0.932; in the test with Linifanib + Crizotinib (first compound 0.3162 µM), 0.867. The relative viability with Linifanib + AZD7762 (first compound 0.03162 µM) was 0.974; with Linifanib + AZD7762 (first compound 0.1 µM), 0.894; in the test with Linifanib + AZD7762 (first compound 0.3162 µM), 0.831; in the test with Linifanib + Olaparib (first compound 0.03162 µM) it was 1.03; with Linifanib + Olaparib (first compound 0.1 µM), 1.13; with Linifanib + Olaparib (first compound 0.3162 µM), 0.963.
As to HCC-15, the relative viability was 0.239 with Linifanib + Pemetrexed (first compound 0.03162 µM); 0.229 in the test with Linifanib + Pemetrexed (first compound 0.1 µM); 0.232 with Linifanib + Pemetrexed (first compound 0.3162 µM); 0.651 with Linifanib + Navitoclax (first compound 0.03162 µM); 0.776 with Linifanib + Navitoclax (first compound 0.1 µM); 0.682 in the test with Linifanib + Navitoclax (first compound 0.3162 µM). The relative viability is 0.39 with Linifanib + Tozasertib (first compound 0.03162 µM); 0.406 in the test with Linifanib + Tozasertib (first compound 0.1 µM); 0.436 in the test with Linifanib + Tozasertib (first compound 0.3162 µM); 0.855 with Linifanib + Crizotinib (first compound 0.03162 µM); 0.86 in the test with Linifanib + Crizotinib (first compound 0.1 µM); 0.779 in the test with Linifanib + Crizotinib (first compound 0.3162 µM). Moreover, the relative viability with Linifanib + AZD7762 (first compound 0.03162 µM) was found to be 0.922; in the test with Linifanib + AZD7762 (first compound 0.1 µM) it was 1.18; with Linifanib + AZD7762 (first compound 0.3162 µM), 1.12; in the test with Linifanib + Olaparib (first compound 0.03162 µM) it was 0.827; in the test with Linifanib + Olaparib (first compound 0.1 µM) it was 0.772; in the test with Linifanib + Olaparib (first compound 0.3162 µM), 0.706.
